Laboratory results taken from publication PMC4629899, “Structural and Enzymatic Characterization of a Nucleoside Diphosphate Sugar Hydrolase from Bdellovibrio bacteriovorus” (PLoS ONE, 2015).

Legend:
[1] = molecular target: T1, Bd-NDPSase (Bd3179) (Bdellovibrio bacteriovorus, UniProt Q6MIH8, E140Q); assay: X-ray crystal structure, […] A (soak); format: binding; settings: crystals soaked in 5 mM ADPR for 2 days; catalytically inactive mutant; active site, no metal added
T1 construct: gene nudF; gene cloned from HD100 chromosomal DNA into pET24a, expressed in E. coli BL21 (DE3); conventional purification, no tag mentioned; homodimer, residues numbered to 182

[2] = molecular target: T1, Bd-NDPSase (Bd3179); assay: X-ray crystal structure, […] A; format: binding; settings: from crystals with 5 mM UDP-glucose (co-crystallization per methods, soak per results); active site, shifted toward phosphate position
[3] = substrate: Nc1nc2c(ncn2[C@@H]2O[C@H](COP(=O)(O)OP(=O)(O)O[C@H]3O[C@H](CO)[C@@H](O)[C@H](O)[C@@H]3O)[C@@H](O)[C@H]2O)c(=O)[nH]1; assay: phosphate release assay (Ames, coupled to calf intestinal phosphatase); format: biochemical, Bdellovibrio bacteriovorus; settings: 5 mM MgCl2, 50 mM Tris-HCl pH 8.6, 1 mM EDTA
Text: phosphate release assay (Ames, coupled to calf intestinal phosphatase) on Bd-[…]

T1 sequence (Q6MIH8 entry or part of it E140Q): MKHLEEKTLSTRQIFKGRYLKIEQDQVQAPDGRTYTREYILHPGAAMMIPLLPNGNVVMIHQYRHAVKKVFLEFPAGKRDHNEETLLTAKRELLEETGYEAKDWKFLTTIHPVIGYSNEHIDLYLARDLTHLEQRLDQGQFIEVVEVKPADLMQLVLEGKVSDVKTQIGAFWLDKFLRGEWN

With Nc1ncnc2c1ncn2[C@@H]1O[C@H](COP(=O)(O)OP(=O)(O)OC[C@H]2OC(O)[C@H](O)[C@@H]2O)[C@@H](O)[C@H]1O (stereo partly shown) [ADPR, ADP-ribose] the “X-ray crystal structure, 2.06 A (soak)” value [1] was “E140Q Bd-NDPSase in complex with ADP-ribose (PDB ID 5C7T)”.

OC[C@H]1OC(O)[C@H](O)[C@@H](O)[C@@H]1O (stereo partly shown) [glucose] was tested, and the “X-ray crystal structure, 1.80 A” value [2] was “E140Q Bd-NDPSase in complex with glucose (PDB ID 5C8L)”.

B1: Bd-NDPSase (Bd3179) (Bdellovibrio bacteriovorus HD100) (protein)
chain: MKHLEEKTLSTRQIFKGRYLKIEQDQVQAPDGRTYTREYILHPGAAMMIPLLPNGNVVMIHQYRHAVKKVFLEFPAGKRDHNEETLLTAKRELLEETGYEAKDWKFLTTIHPVIGYSNEHIDLYLARDLTHLEQRLDQGEFIEVVEVKPADLMQLVLEGKVSDVKTQIGAFWLDKFLRGEWN
notes: gene cloned from HD100 chromosomal DNA into pET24a, expressed in E. coli BL21 (DE3); conventional purification, no tag mentioned; homodimer, residues numbered to 182
B1 showed a Km [3] of 300 µM and a kcat [3] of 5200 s⁻¹.
